Data as given in patent US6544985B2, “Dihydro-benzo [b][1,4]diazepin-2-one derivatives” (Hoffman-La Roche Inc., priority 2001, dated 2003).

Assays:
[1] = target: T1, recombinant rat mGluR2 expressed in CHO cells (Rattus norvegicus, UniProt P31421); assay: [3H]-LY354740 binding on mGlu2 transfected CHO cell membranes (displacement binding assay)
T1 construct: expressed in transfected cells; vector pcDNA I-amp, construct pcD1mGR2
T1 sequence (P31421 19-872): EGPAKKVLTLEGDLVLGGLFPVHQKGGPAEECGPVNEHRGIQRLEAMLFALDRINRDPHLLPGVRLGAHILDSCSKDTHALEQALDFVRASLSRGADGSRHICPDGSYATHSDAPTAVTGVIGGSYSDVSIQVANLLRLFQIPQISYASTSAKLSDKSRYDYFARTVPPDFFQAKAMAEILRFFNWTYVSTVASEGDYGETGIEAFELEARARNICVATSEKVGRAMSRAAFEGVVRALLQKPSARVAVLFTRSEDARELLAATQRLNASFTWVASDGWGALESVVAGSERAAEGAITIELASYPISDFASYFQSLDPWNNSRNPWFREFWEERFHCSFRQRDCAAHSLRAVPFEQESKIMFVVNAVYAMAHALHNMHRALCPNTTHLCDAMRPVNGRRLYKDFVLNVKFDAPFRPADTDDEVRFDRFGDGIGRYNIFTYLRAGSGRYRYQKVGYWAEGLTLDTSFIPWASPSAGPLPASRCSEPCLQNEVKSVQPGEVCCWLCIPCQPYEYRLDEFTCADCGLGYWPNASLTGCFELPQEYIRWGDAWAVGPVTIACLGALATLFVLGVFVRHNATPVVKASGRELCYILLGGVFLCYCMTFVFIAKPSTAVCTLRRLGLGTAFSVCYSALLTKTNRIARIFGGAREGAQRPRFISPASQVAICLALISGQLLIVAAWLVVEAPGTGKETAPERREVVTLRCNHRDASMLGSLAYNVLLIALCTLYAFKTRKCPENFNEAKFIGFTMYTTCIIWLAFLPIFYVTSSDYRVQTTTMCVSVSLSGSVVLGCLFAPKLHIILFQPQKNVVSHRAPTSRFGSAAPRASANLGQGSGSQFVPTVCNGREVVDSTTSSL

| Compound | Ki [1] | melting point |
| --- | --- | --- |
| CN(C)c1cc2c(cc1-c1cccc(F)c1F)NC(=O)CC(c1cccc(-n3ccnn3)c1)=N2 [Example 8, 8-(2,3-Difluoro-phenyl)-7-dimethylamino-4-(3-[1,2,3]triazol-1-yl-phenyl)-1,3-dihydro-benzo[b][1,4]diazepin-2-one] | 70 nM | 197 to 199 °C |
| COCCN(C)c1cc2c(cc1Cl)NC(=O)CC(c1cccc(-c3cc(C)no3)c1)=N2 [Example 11] | 25 nM | 182 °C |
| CN(C)c1cc2c(cc1Cl)NC(=O)CC(c1cccc(-c3ccnn3C)c1)=N2 [Example 16, 8-Chloro-7-dimethylamino-4-[3-(2-methyl-2H-pyrazol-3-yl)-phenyl]-1,3-dihydro-benzo[b][1,4]diazepin-2-one] | 23 nM | 225 °C |
| CN(C)c1cc2c(cc1Cl)NC(=O)CC(c1cccc(-c3nc(CO)cs3)c1)=N2 [Example 19, 8-Chloro-7-dimethylamino-4-[3-(4-hydroxymethyl-thiazol-2-yl)-phenyl]-1,3-dihydro-benzo[b][1,4]diazepin-2-one] | 30 nM | 134 °C (dec.) |
| Cc1cc(-c2cccc(C3=Nc4cc(OCC(F)(F)F)c(-c5ccccc5F)cc4NC(=O)C3)c2)on1 [Example 24, 8-(2-Fluoro-phenyl)-4-[3-(3-methyl-isoxazol-5-yl)-phenyl]7-(2,2,2-trifluoro-ethoxy)-1,3-dihydro-benzo[b][1,4]diazepin-2-one] | 30 nM | 218 to 220 °C |
| CN(C)c1cc2c(cc1Cl)NC(=O)CC(c1cccc(-c3nc(CO)co3)c1)=N2 [Example 27, 8-Chloro-7-dimethylamino-4-[3-(4-hydroxymethyl-oxazol-2-yl)-phenyl]-1,3-dihydro-benzo[b][1,4]diazepin-2-one] | 39 nM | 193 to 195 °C |
| O=C1CC(c2cccc(-n3nncc3CO)c2)=Nc2cc(N3CCCC3)c(Cl)cc2N1 [Example 32, 8-Chloro-4-[3-(5-hydroxymethyl-[1,2,3]triazol-1-yl)-phenyl]-7-pyrrolidin-1-yl-1,3-dihydro-benzo[b][1,4]diazepin-2-one] | 19 nM | 193 to 197 °C |
| CN(C)c1cc2c(cc1C(F)(F)F)NC(=O)CC(c1cccc(-c3cc(CN4CCOCC4)no3)c1)=N2 [Example 54, 7-Dimethylamino-4-[3-(3-morpholin-4-ylmethyl-isoxazol-5-yl)-phenyl]-8-trifluoromethyl-1,3-dihydro-benzo[b][1,4]diazepin-2-one] | 125 nM | 165 °C |
| CSc1nccn1-c1cccc(C2=Nc3cc(N(C)C)c(C(F)(F)F)cc3NC(=O)C2)c1 [Example 71, 7-Dimethylamino-4-[3-(2-methylsulfanyl-imidazol-1-yl)-phenyl]-8-trifluoromethyl-1,3-dihydro-benzo[b][1,4]diazepin-2-one] | 19 nM | 192 °C |
| CN(CC1CC1)c1cc2c(cc1C(F)(F)F)NC(=O)CC(c1ccnc(C#N)c1)=N2 [Example 78, 4-[8-(Cyclopropylmethyl-methyl-amino)-4-oxo-7-trifluoromethyl-4,5-dihydro-3H-benzo[b][1,4]diazepin-2-yl]-pyridine-2-carbonitrile] | 5 nM | 155 °C |
| CN(C)c1cc2c(cc1C(F)(F)F)NC(=O)CC(c1cccc(-n3nncc3CNC3CC3)c1)=N2 [Example 82, 4-[3-(5-Cyclopropylaminomethyl-[1,2,3]triazol-1-yl)-phenyl]-7-dimethylamino-8-trifluoromethyl-1,3-dihydro-benzo[b][1,4]diazepin-2-one] | 49 nM | – |
| N#Cc1cc(C2=Nc3cc(OCC(F)(F)F)c(C(F)(F)F)cc3NC(=O)C2)ccn1 [Example 88, 4-[4-Oxo-8-(2,2,2-trifluoro-ethoxy)-7-trifluoromethyl-4,5-dihydro-3H-benzo[b][1,4]diazepin-2-yl]-pyridine-2-carbonitrile] | 4 nM | 252 to 255 °C |
| CCCN(C)c1cc2c(cc1C)NC(=O)CC(c1cccc(C#N)c1)=N2 [Example 92, 3-[7-Methyl-8-(methyl-propyl-amino)-4-oxo-4,5-dihydro-3H-benzo[b][1,4]diazepin-2-yl]-benzonitrile] | 25 nM | 195 °C |
| CCN(CC)c1cc2c(cc1C#N)NC(=O)CC(c1cccc(-c3cc(C)no3)c1)=N2 [Example 107, 8-Diethylamino-2-[3-(3-methyl-isoxazol-5-yl)-phenyl]-4-oxo-4,5-dihydro-3H-benzo[b][1,4]diazepine-7-carbonitrile] | 9 nM | 191 °C |
| CCCN(C)c1cc2c(cc1C(F)(F)F)NC(=O)CC(c1cccc(-n3cncn3)c1)=N2 [Example 169] | 27 nM | 185 °C |
| CCNc1nc(-c2cccc(C3=Nc4cc(N(C)C)c(Cl)cc4NC(=O)C3)c2)cs1 [Example 195, 8-Chloro-7-dimethylamino-4-[3-(2-ethylamino-thiazol-4-yl)-phenyl]-1,3-dihydro-benzo[b][1,4]diazepin-2-one] | 480 nM | 122 to 123 °C |
| CN(C)c1cc2c(cc1C(F)(F)F)NC(=O)CC(c1cccc(-c3nnc(CO)s3)c1)=N2 [Example 204, 7-Dimethylamino-4-[3-(5-hydroxymethyl-[1,3,4]thiadiazol-2-yl)-phenyl]-8-trifluoromethyl-1,3-dihydro-benzo[b][1,4]diazepin-2-one] | 17 nM | 242 to 246 °C |
| CCCc1oc(C)nc1-c1cccc(C2=Nc3cc(N(C)C)c(C(F)(F)F)cc3NC(=O)C2)c1 [Example 212, 7-Dimethylamino-4-[3-(2-methyl-5-propyl-oxazol-4-yl)-phenyl]-8-trifluoromethyl-1,3-dihydro-benzo[b][1,4]diazepin-2-one] | 46 nM | 211 to 212 °C |
| CCCN(C)c1cc2c(cc1C(F)(F)F)NC(=O)CC(c1cccc(-c3nnc(CO)s3)c1)=N2 [Example 222, 4-[3-(5-Hydroxymethyl-[1,3,4]thiadiazol-2-yl)-phenyl]-7-(methyl-propyl-amino)-8-trifluoromethyl-1,3-dihydro-benzo[b][1,4]diazepin-2-one] | 8 nM | 193 to 194 °C |

Results, then the compound that gave them:

| Ki [1] | melting point | Compound |
| --- | --- | --- |
| 30 nM | 178 °C (dec.) | CCCN(C)c1cc2c(cc1Cl)NC(=O)CC(c1cccc(-n3nncc3CO)c1)=N2 [Example 29, 8-Chloro-7-(methyl-propyl-amino)-4-[3-(5-hydroxymethyl-[1,2,3]triazol-1-yl)-phenyl]-1,3-dihydro-benzo[b][1,4]diazepin-2-one] |
| 44 nM | 208 °C (dec.) | CCN(CC)c1cc2c(cc1Cl)NC(=O)CC(c1cccc(-n3nncc3CO)c1)=N2 [Example 30, 8-Chloro-7-(diethyl-amino)-4-[3-(5-hydroxymethyl-[1,2,3]triazol-1-yl)-phenyl]-1,3-dihydro-benzo[b][1,4]diazepin-2-one] |
| 160 nM | – | CN(c1cc2c(cc1Cl)NC(=O)CC(c1cccc(-n3nncc3CO)c1)=N2)C1CC1 [Example 37, 8-Chloro-7-(cyclopropyl-methyl-amino)-4-[3-(5-hydroxymethyl-[1,2,3]triazol-1-yl)-phenyl]-1,3-dihydro-benzo[b][1,4]diazepin-2-one] |
| 110 nM | 231 to 234 °C | CN(C)c1cc2c(cc1Cl)NC(=O)CC(c1cccc(-n3cccn3)c1)=N2 [Example 52, 8-Chloro-7-dimethylamino-4-(3-pyrazol-1-yl-phenyl)-1,3-dihydro-benzo[b][1,4]diazepin-2-one] |
| 20 nM | 201 °C | CC(C)CN(C)c1cc2c(cc1Cl)NC(=O)CC(c1cccc(-n3nncc3CO)c1)=N2 [Example 101, 8-Chloro-4-[3-(5-hydroxymethyl-[1,2,3]triazol-1-yl)-phenyl]-7-(isobutyl-methyl-amino)-1,3-dihydro-benzo[b][1,4]diazepin-2-one] |
| 15 nM | 169 °C | CCCN(C)c1cc2c(cc1Cl)NC(=O)CC(c1cccc(-n3nncc3CN3CCC3)c1)=N2 [Example 122, 4-[3-(5-Azetidin-1-ylmethyl-[1,2,3]triazol-1-yl)-phenyl]-8-chloro-7-(methyl-propyl-amino)-1,3-dihydro-benzo[b][1,4]diazepin-2-one] |
| 89 nM | 195 °C | CC(C)CN(C)c1cc2c(cc1Cl)NC(=O)CC(c1cccc(-n3ncnc3CO)c1)=N2 [Example 163, 8-Chloro-4-[3-(5-hydroxymethyl-[1,2,4]triazol-1-yl)-phenyl]-7-(isobutyl-methyl-amino)-1,3-dihydro-benzo[b][1,4]diazepin-2-one] |
| 12 nM | 198 °C | CC(C)CN(C)c1cc2c(cc1C(F)(F)F)NC(=O)CC(c1cccc(-n3cncn3)c1)=N2 [Example 174, 7-(Isobutyl-methyl-amino)-4-(3-[1,2,4]triazol-1-yl-phenyl)-8-trifluoromethyl-1,3-dihydro-benzo[b][1,4]diazepin-2-one] |
| 3 nM | 135 to 136 °C | CC(C)CN(C)c1cc2c(cc1Cl)NC(=O)CC(c1cccc(-c3nc(CO)cs3)c1)=N2 [Example 186, 8-Chloro-4-[3-(4-hydroxymethyl-thiazol-2-yl)-phenyl]-7-(isobutyl-methyl-amino)-1,3-dihydro-benzo[b][1,4]diazepin-2-one] |
